According to PMC10177380 (Cancers, 2023):
Read-outs that look alike come from different tables or passages of the source.

Key:
[1] = biological target: T1, COX-2 (human) (Homo sapiens, UniProt P35354); test: COX-2 (human) Inhibitor Screening Assay Kit (ELISA); assay type: biochemical; design: concentration or dose not given beside the values
T1 construct: purchased Cayman Chemical Item No. 701080
T1 sequence (P35354 18-604): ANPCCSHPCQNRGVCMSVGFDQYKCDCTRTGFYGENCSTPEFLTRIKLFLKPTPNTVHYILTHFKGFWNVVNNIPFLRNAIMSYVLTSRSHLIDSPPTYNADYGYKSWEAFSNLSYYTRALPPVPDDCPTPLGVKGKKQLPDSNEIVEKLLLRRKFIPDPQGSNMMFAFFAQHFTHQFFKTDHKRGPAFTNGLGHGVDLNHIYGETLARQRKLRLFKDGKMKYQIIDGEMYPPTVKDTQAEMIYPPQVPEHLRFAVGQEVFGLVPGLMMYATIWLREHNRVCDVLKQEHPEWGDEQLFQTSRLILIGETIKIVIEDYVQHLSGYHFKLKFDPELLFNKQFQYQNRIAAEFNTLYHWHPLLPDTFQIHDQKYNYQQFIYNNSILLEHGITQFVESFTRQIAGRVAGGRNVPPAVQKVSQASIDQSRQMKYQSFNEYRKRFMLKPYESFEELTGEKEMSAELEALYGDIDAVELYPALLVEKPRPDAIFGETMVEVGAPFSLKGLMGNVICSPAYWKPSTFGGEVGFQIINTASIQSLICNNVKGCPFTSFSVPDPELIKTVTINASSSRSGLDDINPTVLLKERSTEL
Description: NSAIDs are well recognised as inhibitors of the COX enzymes, COX-1 and COX-2 [37, 42, 45]. […] COX-1 is typically expressed in most tissues and is associated with normal physiological functions, particularly by maintaining prostaglandin production at basal levels. In contrast, COX-2 is involved in the excessive production of prostaglandin during inflammation (or hypoxia), and extensive studies have shown that COX-2 resultant prostaglandins are overexpressed in tumours. […] To explore the COX-2 inhibitory properties of the studied complexes (1–6), ELISA was used against the COX-2 enzyme. […]
6. Cyclooxygenase-2 (COX-2) Inhibition
The standards, samples and assay preparation, and completion were achieved as instructed by the manufacturer. The assay necessitated three steps, being the standards preparation, the COX reaction, and the enzyme immunoassay. The standards were prepared in 2-fold serial dilution of the prostaglandin F2α enzyme-linked immunosorbent assay (ELISA) standard starting at 500 pg/mL to 3.9 pg/mL in ELISA buffer (1X). The COX reaction dilution preparation for the background samples included the addition of background COX-2 (20 μL), which was inactivated in boiling water for 3 min. The background values were generated by adding 10 μL of the inactivated COX-2, 160 μL of the reaction buffer (1X), 10 μL of heme and 10 μL of DMSO (inhibitor vehicle). The COX reaction dilution preparation for the COX-2 100% initial activity samples included the addition 160 μL of the reaction buffer (1X), 10 μL of heme, 10 μL of COX-2 and 10 μL of DMSO (inhibitor vehicle). The COX reaction dilution preparation for the COX-2 inhibitor samples included the addition of 160 μL of the reaction buffer (1X), 10 μL of heme, 10 μL […]
The reaction was then initiated by the addition of 10 μL of arachidonic acid and potassium hydroxide solution (1:1), and […]
enzyme catalysis. The tubes were then vortexed and incubated for 5 min at room […]
temperature. The background samples were diluted with ELISA buffer (1X) 1:100 times […]
and the COX-2 100% initial activity and COX-2 inhibitor samples were diluted 1:2000 and […]
1:4000 times. For the enzyme immunoassay, 100 μL of the ELISA buffer (1X) was added […]
to non-specific binding wells (NSBs), 50 μL of the ELISA buffer (1X) was added to […]
maximum binding wells (B0) and 50 μL of each prostaglandin F2α standard was added to […]
standard wells in duplicates. 50 μL of background sample and 50 μL of COX-2 100% […]
initial activity samples were independently added to the wells in duplicates. Inhibitor […]
samples (50 μL) being investigated were added to the wells in triplicates. Prostaglandin […]
F2α acetyl-cholinesterase (AChE) tracer (50 μL) was added to all wells but the total […]
activity well and blank wells. Prostaglandin F2α ELISA antiserum (50 μL) was added to […]
each well but the total activity well, NSBs and blank wells. The plate was then covered […]
with a plastic seal and incubated overnight at room temperature on an orbital shaker. The […]
wells were then washed five times using kit wash buffer (1X). Ellman’s reagent (200 μL) […]
was then added to each well, as well as 5 μL of the AChE tracer into the total activity […]
well. The plate was then covered with the plastic seal, placed on an orbital shaker in the […]
dark to develop for 2 hours at room temperature. […]
nm using the SpectraMax M2 series multi-mode microplate reader (Molecular Devices, […]

[2] = tested on: HT29 colon cells; test: Mitochondrial membrane potential, TMRE-MtMP assay; assay type: cell-based, human; conditions: treatment at GI50 concentration (FCCP positive control 20 μM)
Description: To study the MtMP changes in treated cells, a TMRE-MtMP Assay Kit (Abcam, Cambridge, MA, USA) was used (see Supplementary Materials).
TMRE was used to stain HT29 colon cells, and treatment with the complexes and ligands was completed at each specific GI50 concentration. The MtMP changes detected are expressed as RFU. Additionally, lower RFU values correspond to a decline in mitochondrial activity. […]
dimethylthiazol-2-yl]-2,5-diphenyltetrazolium bromide) assay and absorbance was read at 540 nm. An eight-point dose response curve was produced from which the GI50 value was calculated, representing the drug concentration at which cell growth was inhibited by 50% based on the difference between the optical density values on day 0 and those at the end of drug exposure. […]
5. Mitochondrial Membrane Potential (MtMP)
In 96-well plates, 25,000 cells/mL of HT29 colon cells in DMEM were seeded. Cells were treated with a GI50 drug concentration for each complex. […]
washed with PBS and stained with 1 μM tetramethylrhodamine, ethyl ester (TMRE) and incubated for 30 min. TMRE was then removed, and cells were then re-washed with PBS (0.2% BSA), after which phenol red free media was added. The plates were directly scanned to measure fluorescence (expressed as RFU), using the Glo-Max®-Multimode […]
microplate reader (Promega Corporation, Alexandra, VIC, Australia) at an […]
For the positive control, 20 μM carbonyl cyanide 4-(trifluoromethoxy) phenylhydrazone (FCCP)) was added to the cells and incubated for 10 min. The cells were washed with PBS (0.2% BSA) and stained with TMRE (1 μM) for 30 min; this was removed and phenol red free media was added, and the final solution was scanned as mentioned above. […]

SMILES	Percentage COX-2 Inhibitory Activity [1] [%]	MtMP Changes ([2]; HT29, 24 h) [RFU]	MtMP Changes ([2]; HT29, 48 h) [RFU]	MtMP Changes ([2]; HT29, 72 h) [RFU]	Percentage COX-2 Inhibitory Activity ([1]; 72 h) [%]
Cc1cc2c3c4c1=CC=C[N]4[Pt+2][N]3C=CC=2.N[C@H]1CCCC[C@@H]1N [Complex 5MESS]	6 ± 3	210 ± 15	204 ± 6	144 ± 5	–
COc1ccc2cc([C@H](C)C(=O)[O][Pt+2]3([OH])[N]4C=CC=c5cc(C)c6c(c54)[N]3C=CC=6)ccc2c1.N[C@H]1CCCC[C@@H]1N (stereo partly drawn) [Complex 2, [Pt^IV(5-Mephen)(SS-DACH)(NPX)(OH)]^2+]	44 ± 6	368 ± 9	160 ± 13	130 ± 7	–
COc1ccc2c(c1)c(CC(=O)OCC(=O)O)c(C)n2C(=O)c1ccc(Cl)cc1 [ACE, acemetacin]	76 ± 8	494 ± 6	371 ± 10	295 ± 13	–
COc1ccc2c(c1)c(CC(=O)OCC(=O)[O][Pt-2]13([OH])([NH2+][C@H]4CCCC[C@@H]4[NH2+]1)[n+]1cccc4c(C)c(C)c5ccc[n+]3c5c41)c(C)n2C(=O)c1ccc(Cl)cc1 [Complex 6, [Pt^IV(5,6-Me2phen)(SS-DACH)(ACE)(OH)]^2+]	32 ± 3	387 ± 7	284 ± 11	112 ± 8	–
COc1ccc2cc([C@H](C)C(=O)[O][Pt+2]3([OH])[N]4C=CC=c5c(C)c(C)c6c(c54)[N]3C=CC=6)ccc2c1.N[C@H]1CCCC[C@@H]1N [Complex 3, [Pt^IV(5,6-Me2phen)(SS-DACH)(NPX)(OH)]^2+]	37 ± 4	351 ± 5	152 ± 8	104 ± 6	–
COc1ccc2cc([C@H](C)C(=O)[O][Pt+2]3([OH])[N]4C=CC=c5ccc6c(c54)[N]3C=CC=6)ccc2c1.N[C@H]1CCCC[C@@H]1N [Complex 1, [Pt^IV(phen)(SS-DACH)(NPX)(OH)]^2+]	55 ± 3	382 ± 11	211 ± 12	163 ± 5	–
COc1ccc2c(c1)c(CC(=O)OCC(=O)[O][Pt-2]13([OH])([NH2+][C@H]4CCCC[C@@H]4[NH2+]1)[n+]1cccc4cc(C)c5ccc[n+]3c5c41)c(C)n2C(=O)c1ccc(Cl)cc1 [Complex 5, [Pt^IV(5-Mephen)(SS-DACH)(ACE)(OH)]^2+]	36 ± 2	412 ± 4	284 ± 12	140 ± 5	–
N.N.[Cl][Pt][Cl] [Cisplatin, cis-diamminedichloroplatinum(II)]	9 ± 2	256 ± 9	236 ± 13	199 ± 11	–
COc1ccc2c(c1)c(CC(=O)OCC(=O)[O][Pt-2]13([OH])([NH2+][C@H]4CCCC[C@@H]4[NH2+]1)[n+]1cccc4ccc5ccc[n+]3c5c41)c(C)n2C(=O)c1ccc(Cl)cc1 [Complex 4, [Pt^IV(phen)(SS-DACH)(ACE)(OH)]^2+]	48 ± 3	416 ± 8	343 ± 8	184 ± 5	–
C1=C[N]2[Pt+2][N]3C=CC=c4ccc(c2c43)=C1.N[C@H]1CCCC[C@@H]1N [PHENSS]	8 ± 4	289 ± 17	271 ± 15	237 ± 10	–
COc1ccc2cc([C@H](C)C(=O)O)ccc2c1 [NPX, naproxen]	–	499 ± 10	397 ± 13	304 ± 9	83 ± 5
Cc1c(C)c2cccnc2c2ncccc12.N[C@H]1CCCC[C@@H]1N.[Pt] [Complex 56MESS, [Pt^II(5,6-Me2phen)(SS-DACH)]^2+]	5 ± 4	156 ± 10	162 ± 13	103 ± 7	–
